Earlier results in article PMC6376154 (International Journal for Parasitology: Drugs and Drug …, 2019).
Read-outs that look alike come from different tables or passages of the source.

Tested on: P. falciparum 3D7 asexual blood stage
Conditions: cited from earlier work
[1] = MMV Malaria Box sheet, ref MMV data sheets
[2] = source GNF, ref ChEMBL_NTD, read-out: CHEMBL EC50
[3] = MMV Malaria Box data sheet, ref MMV data sheets
[4] = MMV Malaria Box data sheet, ref MMV data sheets, read-out: EC50_nM
[5] = source GSK, ref ChEMBL_NTD, read-out: CHEMBL EC50
[6] = MMV Malaria Box sheet, ref MMV data sheets, read-out: EC50_nM
[7] = MMV Malaria Box data sheet (supplement mmc2.xls), ref MMV data sheet
[8] = MMV Malaria Box data sheet (supplement mmc2.xls), ref MMV data sheet, read-out: EC50_nM
[9] = value(s) per source (GSK, GNF, StJude), separated by semicolon, ref ChEMBL-NTD, read-out: CHEMBL EC50
[10] = source StJude, ref ChEMBL_NTD, read-out: CHEMBL EC50
[11] = ChEMBL-NTD value per source (GNF, GSK, StJude), several values in a cell follow the order of the sources, read-out: CHEMBL EC50

CCN(CC)CCCNc1ccnc2cc3ccccc3cc12 [MMV665783]
percent_inh @ 5 uM [1]: 90%
EC50 [2]: 33.8 nM

CC(C)(C)c1ccc(O)c(CNC2CCCCC2)c1 [MMV665785]
percent_inh @ 5 uM [3]: 96%
EC50 [4]: 161 nM
EC50 [2]: 250 nM
EC50 [5]: 264 nM

O=c1cc(NC2CCN(CCCc3ccccc3)CC2)c2cc(Cl)ccc2o1 [MMV665786]
percent_inh @ 5 uM [1]: 97%
EC50 [6]: 846 nM
EC50 [2]: 408 nM

CC(NCc1ccccc1)c1cc(Cl)ccc1O (centres unmarked) [MMV665789]
percent_inh @ 5 uM [7]: 95%
EC50 [8]: 603 nM
EC50 [9]: 592 nM

FC(F)(F)c1cccc(Nc2nc3ccccc3nc2Nc2cccc(C(F)(F)F)c2)c1 [MMV665794]
percent_inh @ 5 uM [1]: 99%
EC50 [6]: 313 nM
EC50 [5]: 137 nM

CCOc1cc(Br)c(C(C)NC(=O)c2cccc(OC)c2)cc1OCC (centres unmarked) [MMV665796]
percent_inh @ 5 uM [7]: 96%
EC50 [8]: 1430 nM
EC50 [9]: 168 nM

CCCCOC(=O)c1ccc(Nc2cc(C)nc3ccc(OC)cc23)cc1 [MMV665797]
percent_inh @ 5 uM [1]: 99%
EC50 [6]: 584 nM
EC50 [5]: 640 nM

FC(F)(F)c1cccc(Nc2nc(-c3ccccc3)nc3ncccc23)c1 [MMV665798]
percent_inh @ 5 uM [7]: 74%
EC50 [9]: 802 nM

COc1ccc(C(=O)Nc2ccc(Cl)cc2C(=O)Nc2ccncc2)cc1 [MMV665799]
percent_inh @ 5 uM [7]: 93%
EC50 [9]: 822 nM

CCOc1cc(Cl)c(C(C)NC(=O)c2cccc(OC)c2)cc1OCC (centres unmarked) [MMV665803]
percent_inh @ 5 uM [7]: 98%
EC50 [8]: 728 nM
EC50 [9]: 956 nM

CCOc1ccc(-c2nonc2NC(=O)c2cccc(C)c2)cc1OCC [MMV665805]
percent_inh @ 5 uM [3]: 86%
EC50 [4]: 117 nM
EC50 [10]: 61.9 nM

Cc1c(C)n(CC(O)CNC2CCCCC2C)c2ccccc12 (centres unmarked) [MMV665806]
percent_inh @ 5 uM [1]: 96%
EC50 [6]: 769 nM
EC50 [10]: 527 nM

O=C(Nc1cccc(C(F)(F)F)c1)c1cc(Cl)ccc1O [MMV665807]
percent_inh @ 5 uM [7]: 93%
EC50 [9]: 973 nM

Oc1ccc(Br)cc1CN1CCN(Cc2ccc(Cl)cc2)CC1 [MMV665809]
EC50 [11]: 1480 nM

CCc1ccc(CNCC(O)c2ccccc2)cc1 (centres unmarked) [MMV665812]
EC50 [11]: 2170 nM

CCOC(=O)c1cnc2ccc(OC)cc2c1NCc1ccccc1 [MMV665813]
EC50 [11]: 2770 nM

CC(C)(C)CC(C)(C)NCC(O)COc1ccc2c(c1)CCC2 (centres unmarked) [MMV665817]
percent_inh @ 5 uM [3]: 78%
EC50 [10]: 4420 nM

Cn1c(C(=O)c2cccc3ccccc23)nc2ccccc21 [MMV665824]
EC50 [11]: 6.92 nM

COc1cccc(NC(=O)Cn2c(C)c(C#N)c3ccccc32)c1 [MMV665826]
percent_inh @ 5 uM [7]: 95%
EC50 [8]: 1090 nM

CCOC(=O)c1cn(CC)c2cc(N3CCCCC3)c(F)cc2c1=O [MMV665827]
percent_inh @ 5 uM [3]: 100%
EC50 [4]: 119 nM
EC50 [2]: 166 nM
EC50 [5]: 125 nM

CC1CC2=C(CC1CNCCCN(C)C)C(C)(C)CCC2 (centres unmarked) [MMV665830]
EC50 [11]: 250 nM

CCOC(=O)c1c(NC(=O)c2ccccc2)sc2c(O)c(CN(CC)CC)ccc12 [MMV665831]
percent_inh @ 5 uM [3]: 96%
EC50 [4]: 205 nM
EC50 [2]: 267 nM
EC50 [5]: 969 nM

O=C(Nc1ccc(-c2nc3ccccc3[nH]2)cc1)c1ccc(Cl)c(Cl)c1 [MMV665840]
EC50 [11]: 523 nM

Oc1c2c(nc3ccccc13)CCCC2 [MMV665843]
percent_inh @ 5 uM [1]: 82%
EC50 [2]: 628 nM

Oc1ccc(Cl)cc1CNc1nc2ccccc2[nH]1 [MMV665850]
percent_inh @ 5 uM [3]: 95%
EC50 [2]: 921 nM

O=C(Nc1ccc(Cl)c(Cl)c1)Nc1ccc(Cl)c(Cl)c1 [MMV665852]
EC50 [11]: 1030 nM

CCOc1c(Cl)cc(CNC(C)C(O)c2ccccc2)cc1OC (centres unmarked) [MMV665857]
percent_inh @ 5 uM [7]: 98%
EC50 [9]: 1650 nM

CCCCNc1nc(NC(C)(C)C)nc(NC(C)(C)C)n1 [MMV665864]
EC50 [11]: 2160 nM

Cc1cc(Nc2ccc(C)c(Cl)c2)n2nc(C(F)(F)F)nc2n1 [MMV665874]
percent_inh @ 5 uM [3]: 98%
EC50 [4]: 6.71 nM
EC50 [5]: 15.8 nM

Cn1c(=O)n(C)c2cc(CNCCNc3ccnc4cc(Cl)ccc34)ccc21 [MMV665875]
EC50 [11]: 140 nM

CCC(c1ccccc1)c1nn2c(-c3cccs3)nnc2s1 (centres unmarked) [MMV665876]
percent_inh @ 5 uM [3]: 99%
EC50 [4]: 259 nM
EC50 [5]: 167 nM

COc1cccc(NC(=O)[C@H](C(C)C)n2c(=O)[nH]c3ccccc3c2=O)c1 [MMV665878]
percent_inh @ 5 uM [3]: 99%
EC50 [4]: 139 nM
EC50 [5]: 266 nM

CC(C)(C)C(=O)Nc1ccc(C(=O)Nc2cccc(-c3nc4ccccc4[nH]3)c2)cc1 [MMV665879]
percent_inh @ 5 uM [7]: 91%
EC50 [9]: 282 nM

COc1ccc(CNC(=O)c2cc3c(=O)n4ccccc4nc3n(CCc3ccccc3)c2=N)cc1 [MMV665881]
EC50 [11]: 330 nM

OC(CNC1CCCCC1)Cn1c2ccc(I)cc2c2cc(I)ccc21 (centres unmarked) [MMV665882]
EC50 [11]: 337 nM

O=C(Nc1cccc(-c2nc3ccccc3[nH]2)c1)c1cccc(NC(=O)c2ccco2)c1 [MMV665883]
percent_inh @ 5 uM [1]: 95%
EC50 [6]: 745 nM
EC50 [5]: 360 nM

CC(Oc1ccc(NC(=O)c2cccs2)cc1)C(=O)c1ccc(Cl)cc1 (centres unmarked) [MMV665886]
EC50 [11]: 774 nM
